The target in assay [1] is T1, human V1a receptor (Homo sapiens, UniProt P37288).
T1 construct: expressed in transfected cells; host or cells: CHO K1 (ATCC), also stably transfected with a modified aequorin
Nature of the assay: Cellular in vitro assay for determining vasopressin receptor activity, V1a receptor cell line (CHO, aequorin luminescence). In kind it is cell-based. The following applies: for pIC50: CHO cell line transfected with human V1a receptor, [Arg]-vasopressin at EC50 concentration, read-out: IC50 hV1a; for ratio IC50 hV2/hV1a: selectivity ratio IC50 hV2 / IC50 hV1a. In short, it runs like this: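 Luminescence from reconstituted aequorin, reporting intracellular calcium release, was measured immediately after adding [Arg]-vasopressin at EC50 concentration to CHO K1 cells pretreated 10 minutes with graded compound concentrations. Inhibition gave IC50 values.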

Assay [2] has as its target T2, human V2 receptor (Homo sapiens, UniProt P30518).
T2 construct: expressed in transfected cells; host or cells: CHO K1 (ATCC) expressing firefly luciferase under a CRE-responsive promoter
The assay is described as follows: Cellular in vitro assay for determining vasopressin receptor activity, V2 receptor cell line (CHO, CRE-luciferase). In kind it is cell-based. The following applies: CHO cell line transfected with human V2 receptor; [Arg8]-vasopressin at EC50 concentration; read-out: IC50 hV2.

pIC50: −log10 of the molar value.

T2 sequence (P30518 whole entry): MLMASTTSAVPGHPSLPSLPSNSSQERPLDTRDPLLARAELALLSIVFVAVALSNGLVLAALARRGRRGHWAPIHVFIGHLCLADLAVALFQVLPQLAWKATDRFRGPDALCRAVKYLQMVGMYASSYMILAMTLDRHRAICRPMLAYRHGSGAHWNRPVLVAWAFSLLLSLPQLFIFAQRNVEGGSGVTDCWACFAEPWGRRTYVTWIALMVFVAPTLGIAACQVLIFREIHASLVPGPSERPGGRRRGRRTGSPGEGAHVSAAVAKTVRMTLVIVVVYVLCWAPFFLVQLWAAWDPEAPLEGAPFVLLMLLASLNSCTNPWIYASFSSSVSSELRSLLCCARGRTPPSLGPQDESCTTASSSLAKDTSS
T1 sequence (P37288 whole entry): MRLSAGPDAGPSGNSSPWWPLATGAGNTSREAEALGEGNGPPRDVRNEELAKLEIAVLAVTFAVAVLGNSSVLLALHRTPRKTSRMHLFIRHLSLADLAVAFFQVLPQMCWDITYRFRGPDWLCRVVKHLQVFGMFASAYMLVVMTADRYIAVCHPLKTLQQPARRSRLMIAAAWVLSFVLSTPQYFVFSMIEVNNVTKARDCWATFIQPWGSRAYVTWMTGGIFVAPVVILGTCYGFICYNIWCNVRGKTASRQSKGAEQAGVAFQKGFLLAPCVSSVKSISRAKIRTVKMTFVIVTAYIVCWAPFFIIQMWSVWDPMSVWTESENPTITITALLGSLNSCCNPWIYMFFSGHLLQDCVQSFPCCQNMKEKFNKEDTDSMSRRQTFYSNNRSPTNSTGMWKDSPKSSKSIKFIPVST

As a reminder, the pIC50 is −log10 of the IC50, conventionally taken in molar units. On to `O=C(c1ncccc1-n1cnc(Cn2nc(-c3ccc(Cl)cc3)n(C[C@H](O)C(F)(F)F)c2=O)n1)N1CCOC(C(F)(F)F)C1` (mixture of isomers) [Example 444, 5-(4-Chlorophenyl)-4-[(2S)-3,3,3-trifluoro-2-hydroxypropyl]-2-{[1-(2-{[2-(trifluoromethyl)morpholin-4-yl]carbonyl}pyridin-3-yl)-1H-1,2,4-triazol-3-yl]methyl}-2,4-dihydro-3H-1,2,4-triazol-3-one], for which the pIC50 in assay [1] was 6.92; in assay [2], 5.11. Besides, the “ratio IC50 hV2/hV1a” value in assay [1] came to 65.4.

For the compound `O=C(c1ncccc1-n1cnc(Cn2nc(-c3ccc(Cl)cc3)n(C[C@H](O)C(F)(F)F)c2=O)n1)N1CCNC(C(F)(F)F)C1` (mixture of isomers) [Example 448, 5-(4-Chlorophenyl)-4-[(2S)-3,3,3-trifluoro-2-hydroxypropyl]-2-{[1-(2-{[3-(trifluoromethyl)piperazin-1-yl]carbonyl}pyridin-3-yl)-1H-1,2,4-triazol-3-yl]methyl}-2,4-dihydro-3H-1,2,4-triazol-3-one], the negative-log IC50 (pIC50) is 6.78 in assay [1] and 5.57 in assay [2]. For the same compound, the “ratio IC50 hV2/hV1a” value in assay [1] amounted to 16.4.

In the case of `O=C(c1ncccc1-n1cnc(Cn2nc(-c3ccc(Cl)cc3)n(C[C@H](O)C(F)(F)F)c2=O)n1)N1CCC(C(F)(F)F)C1` (mixture of isomers) [Example 449, 5-(4-Chlorophenyl)-4-[(2S)-3,3,3-trifluoro-2-hydroxypropyl]-2-{[1-(2-{[3-(trifluoromethyl)pyrrolidin-1-yl]carbonyl}pyridin-3-yl)-1H-1,2,4-triazol-3-yl]methyl}-2,4-dihydro-3H-1,2,4-triazol-3-one], in assay [1], the negative-log IC50 (pIC50) was 6.70 and the “ratio IC50 hV2/hV1a” value was 16.8. In addition, in assay [2], the pIC50 is 5.47.

On to `NC(=O)C1CCCN1C(=O)c1ncccc1-n1cnc(Cn2nc(-c3ccc(Cl)cc3)n(C[C@@H](O)C(F)(F)F)c2=O)n1` (mixture of isomers) [Example 467, 1-({3-[3-({3-(4-chlorophenyl)-5-oxo-4-[(2R)-3,3,3-trifluoro-2-hydroxypropyl]-4,5-dihydro-1H-1,2,4-triazol-1-yl}methyl)-1H-1,2,4-triazol-1-yl]pyridin-2-yl}carbonyl)-prolinamide], for which, in assay [1], the pIC50 is 6.21 and the “ratio IC50 hV2/hV1a” value came out at 51.6. In addition, in assay [2], the negative logarithm of the IC50 (pIC50) was 4.49.

For `O=C(c1ncccc1-n1cnc(Cn2nc(-c3ccc(Cl)cc3)n(C[C@@H](O)C(F)(F)F)c2=O)n1)N1CCC(C(F)(F)F)C1` (mixture of isomers) [Example 480, 5-(4-Chlorophenyl)-4-[(2R)-3,3,3-trifluoro-2-hydroxypropyl]-2-{[1-(2-{[3-(trifluoromethyl)pyrrolidin-1-yl]carbonyl}pyridin-3-yl)-1H-1,2,4-triazol-3-yl]methyl}-2,4-dihydro-3H-1,2,4-triazol-3-one], in assay [1], the pIC50 is 6.34 and the “ratio IC50 hV2/hV1a” value came out at 69.6. Also, the pIC50 in assay [2] is 4.49.

For the compound `NC(CNC(=O)c1ncccc1-n1cnc(Cn2nc(-c3ccc(Cl)cc3)n(C[C@@H](O)C(F)(F)F)c2=O)n1)C(F)(F)F` (mixture of isomers) [Example 484, N-[2-Amino-3,3,3-trifluoropropyl]-3-[3-({3-(4-chlorophenyl)-5-oxo-4-[(2R)-3,3,3-trifluoro-2-hydroxypropyl]-4,5-dihydro-1H-1,2,4-triazol-1-yl}methyl)-1H-1,2,4-triazol-1-yl]pyridine-2-carboxamide], in assay [1], the negative logarithm of the IC50 (pIC50) is 6.68 and the “ratio IC50 hV2/hV1a” value is 44.8. Further, the pIC50 in assay [2] is 5.03.

Turning to `O=C(NCC(O)C(F)(F)F)c1ncccc1-n1cnc(Cn2nc(-c3ccc(Cl)cc3)n(C[C@@H](O)C(F)(F)F)c2=O)n1` (mixture of isomers) [Example 485, 3-[3-({3-(4-Chlorophenyl)-5-oxo-4-[(2R)-3,3,3-trifluoro-2-hydroxypropyl]-4,5-dihydro-1H-1,2,4-triazol-1-yl}methyl)-1H-1,2,4-triazol-1-yl]-N-[3,3,3-trifluoro-2-hydroxypropyl]pyridine-2-carboxamide], the results for the pIC50 in assay [1] and in assay [2] were 6.64 and 5.30, respectively. Besides, the “ratio IC50 hV2/hV1a” value in assay [1] is given as 21.7.

Take `COCC1CCCN1C(=O)c1ccncc1-n1cnc(Cn2nc(-c3ccc(Cl)cc3)n(C[C@H](O)C(F)(F)F)c2=O)n1` (mixture of isomers) [Example 493, 5-(4-Chlorophenyl)-2-{[1-(4-{[2-(methoxymethyl)pyrrolidin-1-yl]carbonyl}pyridin-3-yl)-1H-1,2,4-triazol-3-yl]methyl}-4-[(2S)-3,3,3-trifluoro-2-hydroxypropyl]-2,4-dihydro-3H-1,2,4-triazol-3-one]: in assay [1], the negative logarithm of the IC50 (pIC50) was 7.87 and the “ratio IC50 hV2/hV1a” value was found to be 540.7. The pIC50 in assay [2] was 5.14.

Consider `O=C(NC1CC1F)c1cccnc1-n1cnc(Cn2nc(-c3ccc(Cl)cc3)n(C[C@H](O)C(F)(F)F)c2=O)n1` (mixture of isomers) [Example 503], for which, in assay [1], the negative logarithm of the IC50 (pIC50) is 8.26 and the “ratio IC50 hV2/hV1a” value amounted to 38.7. Further, the negative logarithm of the IC50 (pIC50) in assay [2] was 6.67.

Take `COCC1CCCN1C(=O)c1ccncc1-n1nc(Cn2nc(-c3ccc(Cl)cc3)n(C[C@H](O)C(F)(F)F)c2=O)nc1C(=O)N1CCNC(=O)C1` (mixture of isomers) [Example 516, 4-{[3-({3-(4-Chlorophenyl)-5-oxo-4-[(2S)-3,3,3-trifluoro-2-hydroxypropyl]-4,5-dihydro-1H-1,2,4-triazol-1-yl}methyl)-1-(4-{[2-(methoxymethyl)pyrrolidin-1-yl]carbonyl}pyridin-3-yl)-1H-1,2,4-triazol-5-yl]carbonyl}piperazin-2-one]: the negative logarithm of the IC50 (pIC50) in assay [1] is 5.24; in assay [2], 4.26. Also, in assay [1], the “ratio IC50 hV2/hV1a” value is given as 9.6.

On to `COCC1CCCN1C(=O)c1ccncc1-n1nc(Cn2nc(-c3ccc(Cl)cc3)n(C[C@H](O)C(F)(F)F)c2=O)nc1C(=O)N1CCS(=O)(=O)CC1` (mixture of isomers) [Example 522, 5-(4-Chlorophenyl)-2-({5-[(1,1-dioxidothiomorpholin-4-yl)carbonyl]-1-(4-{[2-(methoxymethyl)pyrrolidin-1-yl]carbonyl}pyridin-3-yl)-1H-1,2,4-triazol-3-yl}methyl)-4-[(2S)-3,3,3-trifluoro-2-hydroxypropyl]-2,4-dihydro-3H-1,2,4-triazol-3-one], for which, in assay [1], the negative logarithm of the IC50 (pIC50) is 5.52 and the “ratio IC50 hV2/hV1a” value stood at 5.0. Moreover, the negative logarithm of the IC50 (pIC50) in assay [2] is 4.82.

`COCC1CCCN1C(=O)c1cccnc1-n1nc(Cn2nc(-c3ccc(Cl)cc3)n(C[C@H](O)C(F)(F)F)c2=O)nc1C(=O)N1CCNC(=O)C1` (mixture of isomers) [Example 526, 4-{[3-({3-(4-Chlorophenyl)-5-oxo-4-[(2S)-3,3,3-trifluoro-2-hydroxypropyl]-4,5-dihydro-1H-1,2,4-triazol-1-yl}methyl)-1-(3-{[2-(methoxymethyl)pyrrolidin-1-yl]carbonyl}pyridin-2-yl)-1H-1,2,4-triazol-5-yl]carbonyl}piperazin-2-one]: in assay [1], the pIC50 was 5.06 and the “ratio IC50 hV2/hV1a” value came out at 2.3. Also, in assay [2], the pIC50 is 4.70.

(Values after US11173151B2, “Substituted triazole derivatives and uses thereof” (BAYER AKTIENGESELLSCHAFT, priority 2017, dated 2021).)
